Source: patent publication US20180098959A1, “METHODS FOR TREATING CANCER” (BOSTON BIOMEDICAL, INC., priority 2015, published 2018)

Experiments:
[1] = tested on: esophageal adenocarcinoma; experiment: combination with CAPDX regimen, esophageal adenocarcinoma patients; type: in vivo, human; conditions: Chemo Backbone CAPOX, 0 prior lines
Method: The effects of 2-acetylnaphtho[2,3-b]furan-4,9-dione in combination with capecitabine as part of a CAPDX regimen was assessed in adult patients with esophageal adenocarcinoma.
Four patients aged 58-82 who were pretreated with 0-3 lines of prior treatment received oral administration of 2-acetylnaphtho[2,3-b]furan-4,9-dione twice daily together with CAPDX. For example, 2-acetylnaphtho[2,3-b]furan-4,9-dione was administered at a dose of 240 mg BID or 480 mg BID in combination with CAPDX until progression of disease, unacceptable toxicity, or other discontinuation criterion was met. CAPDX was administered orally (capecitabine) and IV (oxaliplatin). Capecitabine 850 mg/m^2 was administered orally twice-daily for 14 consecutive days and repeated every 21 days or until progression of disease, unacceptable toxicity, or other discontinuation criterion was met. Oxaliplatin 130 mg/m^2 was administered IV and repeated every 21 days thereafter. If capecitabine was tolerated at the 850 mg/m^2 twice daily dose, dosage was increased to 1000 mg/m^2 twice daily as tolerated after the first cycle.

FaDu cancer stem cells = experiment: stemness gene expression versus chemo- and targeted therapeutics; type: cell-based; conditions: 24 hours, 2-acetylnaphtho[2,3-b]furan-4,9-dione 2 mM, sunitinib 20 mM, gemcitabine 2 mM, carboplatin 32 mM, FIGS. 4(A)-(D)
Method: FIGS. 4(A)-(D) depict FaDu cancer stem cells that were treated for 24 hours with DMSO and: (i) 2-acetylnaphtho[2,3-b]furan-4,9-dione (2 mM) (FIG. 4(A)), (ii) sunitinib (20 mM) (FIG. 4(B)), (iii) gemcitabine (2 mM) (FIG. 4(C)), or (iv) carboplatin (32 mM) (FIG. 4(D)).

p-Stat3 and β-catenin = experiment: cancer stem cell markers in cancer xenograft models (immunofluorescence); type: in vivo, athymic nude mice; conditions: human colon cancer xenograft Tumor (SW480) in nude mice, tumors harvested after first dosing; FIG. 5
Method: The effects of 2-acetylnaphtho[2,3-b]furan-4,9-dione on cancer stem cell markers was also examined in cancer xenograft models with and without irinotecan. Human cancer cells were subcutaneously implanted into the right flank of 5-7 weeks old female athymic nude mice. When tumor size reached 200 mm^3, animals were treated with 2-acetylnaphtho[2,3-b]furan-4,9-dione, irinotecan, or a combination of 2-acetylnaphtho[2,3-b]furan-4,9-dione and irinotecan. Tumors were harvested after first dosing.
The harvested tissues were fixed in 3.7% neutral buffered formaldehyde at 4° C. for overnight. The paraffin was embedded, cut to about 5 microns, and affixed onto positively charged slides. After being baked and de-paraffinized, the slides with tumor or control tissues were incubated in 10 mM Sodium Citrate (pH 6.0) for 10 minutes. After antigen retrieval, slides were probed with primary antibodies P-STAT3 (rabbit, Cell Signaling, 1:100), 13-Catenine (mouse, Santa Cruz, 1:400) at 4° C. overnight, and then Alexa Fluor fluorescent dyes-conjugated secondary antibodies (1:500, Invitrogen). After mounting with ProLong mounting medium with DAPI (Invitrogen), the slides were examined under a Zeiss fluorescence microscope with 20× objective, and analyzed with Zen software.

For `CC(=O)c1cc2c(o1)C(=O)c1ccccc1C2=O` [2-acetylnaphtho[2,3-b]furan-4,9-dione], the “Best Response, regression” value ([1]; Patient 0012, BBI608 240 mg bid) was 50%, the “Best Response, regression” value ([1]; Patient 0021, BBI608 480 mg bid) was 24% and the “expression of self-renewal / CSC genes (β-Catenin, Nanog, Smo, Sox2)” value (FaDu cancer stem cells) was “decreased expression”. The “expression of p-Stat3 and β-catenin stem cell markers” value (p-Stat3 and β-catenin) was “dramatically reduced expression”.
